In US20050123633A1, “Biological activity-promoting compositions containing soybean germ-origin isoflavone aglycon” (priority 2002, published 2005):

Columns and labels:
Type in all cases: in vivo, rat
[1] = system: OVX female SD rats; assay: Blood free fatty acid (FFA) measurement; settings: after 28 days administration and 24-hour fasting, isoflavone aglycones 20 mg per kg body weight, 17 β-estradiol 1 μg per animal per day, mean ± SD
Source text: (§1) 1) Female SD rats (seven weeks) were procured, and were preliminarily kept for one week. The healthy female SD rats to be used as subjects (eight weeks) were raised in groups with uniform body weight. Rats other than those in the Sham group were ovarectomized (OVX). The Sham group was only laparotomized. After preliminarily keeping for one week after the OVX procedure, the rats were allowed free intake of high-fat feed having the composition shown in Table 2 for a period of 28 days starting on the day following preliminary keeping.
(§2) The rats were also allowed free intake of well water (3 ppm chlorine added). In addition, the environment of the animal facility had constant temperature and humidity of 23±2° C. and 55±10%. The atmosphere conditioning method involved ventilation (15 cycles/h), and the light time was from 8 am to 8 pm. The keeping apparatuses were stainless steel metabolic cages.
(§3) Upon completion of administration on day 28, 24-hour fasting was performed, and the rats were necropsied under ether anesthetization in order to collect blood from the abdominal aorta. Regarding serum cholesterol, measurement of total serum cholesterol, HDL cholesterol, LDL cholesterol and cholesterol ester ratio were carried out, and blood neutral fat (TG), blood free fatty acid (FFA) and leptin were measured using enzymatic methods. In addition, the uterus weight per 100 g body weight was measured for the necropsied females rats. Also, body fat determination was made by measuring the weight of removed posterior abdominal wall fat, mesenteric fat, perirenal fat and periovarian fat per 100 g of body weight. The thymus weights for the necropsied female rats were measured based on the weight per 100 g of body weight.
(§4) The results of measurement for each group were expressed as mean values±standard deviations for each of the measured parameters, and significant differences were determined using Student's t-test. Evaluation was made using the two-sided test, where significance levels were taken as 5 and 1%.

[2] = system: OVX female SD rats; assay: Thymus weight measurement; settings: for Change in Thymus Weight: at necropsy after 28 days, isoflavone aglycones 20 mg per kg body weight, 17 β-estradiol 1 μg per animal per day, mean ± SD
Source text: as §1, §2, §3, §4

[3] = system: OVX female SD rats; assay: Body weight measurement in OVX rats on high-fat feed; settings: 17 β-estradiol 1 μg per animal per day, mean ± SD
Source text: as §1, §2
The body weights of all rats were measured once on days 0, 7, 14, 21 and 28.
(§5) Evaluation was made using the two-sided test, where significance levels were taken as 5 and 1%.

[4] = system: OVX female SD rats; assay: Blood neutral fat (TG) measurement; settings: after 28 days administration and 24-hour fasting, isoflavone aglycones 20 mg per kg body weight, 17 β-estradiol 1 μg per animal per day, mean ± SD
Source text: as §1, §2, §3, §4

[5] = system: OVX female SD rats; assay: Leptin level measurement; settings: after 28 days administration and 24-hour fasting, isoflavone aglycones 20 mg per kg body weight, 17 β-estradiol 1 μg per animal per day, mean ± SD
Source text: as §1, §2, §3, §4

[6] = system: OVX female SD rats; assay: Body fat determination (weight of removed fat); settings: at necropsy after 28 days, isoflavone aglycones 20 mg per kg body weight, 17 β-estradiol 1 μg per animal per day, mean ± SD
Source text: as §1, §2, §3, §4

[7] = system: OVX female SD rats; assay: Urine NO2/NO3 measurement (24-hour accumulated urine); settings: 17 β-estradiol 1 μg per animal per day, mean ± SD
Source text: as §1, §2, §3, §4

[8] = system: OVX female SD rats; assay: Serum cholesterol measurement; settings: after 28 days administration and 24-hour fasting, isoflavone aglycones 20 mg per kg body weight, 17 β-estradiol 1 μg per animal per day, mean ± SD; for Cholesterol ester (%): cholesterol ester ratio
Source text: as §1, §2, §3, §5

[9] = system: OVX female SD rats; assay: Overall evaluation of biological activity promotion over all measured parameters; settings: at an administered amount of 1/4000 relative to isoflavone aglycones
Source text: as §1
Consequently, results were obtained that caused concern over side effects when administered at high dosages.

[10] = day 0, isoflavone aglycones 20 mg per kg body weight in feed
[11] = day 7, isoflavone aglycones 20 mg per kg body weight in feed
[12] = day 14, isoflavone aglycones 20 mg per kg body weight in feed
[13] = day 21, isoflavone aglycones 20 mg per kg body weight in feed
[14] = day 28, isoflavone aglycones 20 mg per kg body weight in feed
[15] = day 0, isoflavone aglycones 20 mg per kg body weight
[16] = day 7, isoflavone aglycones 20 mg per kg body weight
[17] = day 14, isoflavone aglycones 20 mg per kg body weight
[18] = day 21, isoflavone aglycones 20 mg per kg body weight
[19] = day 28, isoflavone aglycones 20 mg per kg body weight

For `O=c1c(-c2ccc(O)cc2)coc2cc(O)cc(O)c12` [genistein], the “Change in FFA (blood free fatty acid)” value [1] was 400.0 ± 19.01 mg/dL, the “Change in Thymus Weight” value [2] was 0.110 ± 0.02 g/100 g; body weight and the “Change in Body Weight” value [3, 10] was 197.3 ± 10.18 g. The “Change in Body Weight” value [3, 11] was 216.9 ± 8.53 g, the “Change in Body Weight” value [3, 12] was 231.9 ± 9.77 g and the “Change in Body Weight” value [3, 13] was 249.4 ± 9.81 g. For the same compound, the “Change in Body Weight” value [3, 14] was 266.8 ± 8.6 g, the “Change in TG (blood neutral fat)” value [4] was 116.9 ± 9.90 mg/dL and the “Change in Leptin” value [5] was 1.9 ± 0.25 ng/mL. For the same compound, the “Body Fat: Mesenteric fat” value [6] was 2.6 ± 0.14 g/100 g; body weight, the “Body Fat: Periovarian fat” value [6] was 3.0 ± 0.26 g/100 g; body weight and the “Body Fat: Perirenal fat” value [6] was 3.7 ± 0.17 g/100 g; body weight. For the same compound, the “Body Fat: posterior abdominal wall fat” value [6] was 2.8 ± 0.25 g/100 g; body weight, the “Change in NO2/NO3 (urinary)” value [7, 15] was 6.1 ± 0.34 µmol and the “Change in NO2/NO3 (urinary)” value [7, 16] was 6.4 ± 0.39 µmol. For the same compound, the “Change in NO2/NO3 (urinary)” value [7, 17] was 6.3 ± 0.56 µmol, the “Change in NO2/NO3 (urinary)” value [7, 18] was 6.2 ± 0.40 µmol and the “Change in NO2/NO3 (urinary)” value [7, 19] was 6.4 ± 0.4 µmol. The “Serum LDL cholesterol” value [8] was 40.6 ± 1.76 mg/dL and the “Serum Total cholesterol” value [8] was 85.8 ± 2.53 mg/dL.

In the case of `O=c1c(-c2ccc(O)cc2)coc2cc(O)ccc12` [daidzein], the “Change in FFA (blood free fatty acid)” value [1] is reported as 379.2 ± 24.45 mg/dL, the “thymus weight relative to the comparative group 1 (Sham) and the test group 1 (OVX), in words” value ([2]; 28 days) is reported as “increase in weight” and the “Change in Thymus Weight” value [2] is reported as 0.130 ± 0.02 g/100 g; body weight. For the same compound, the “Change in Body Weight” value [3, 10] was 191.0 ± 7.31 g, the “Change in Body Weight” value [3, 11] was 216.1 ± 6.86 g and the “Change in Body Weight” value [3, 12] was 230.6 ± 6.58 g. The “Change in Body Weight” value [3, 13] was 245.4 ± 7.07 g, the “Change in Body Weight” value [3, 14] was 257.4 ± 7.71 g and the “Change in TG (blood neutral fat)” value [4] was 104.8 ± 16.71 mg/dL. For the same compound, the “Change in Leptin” value [5] was 1.7 ± 0.12 ng/mL, the “Body Fat: Mesenteric fat” value [6] was 2.8 ± 0.18 g/100 g; body weight and the “Body Fat: Periovarian fat” value [6] was 3.1 ± 0.17 g/100 g; body weight. The “Body Fat: Perirenal fat” value [6] was 3.5 ± 0.20 g/100 g; body weight, the “Body Fat: posterior abdominal wall fat” value [6] was 2.6 ± 0.23 g/100 g; body weight and the “Change in NO2/NO3 (urinary)” value [7, 15] was 6.0 ± 0.53 µmol. The “Change in NO2/NO3 (urinary)” value [7, 16] was 6.4 ± 0.54 µmol, the “Change in NO2/NO3 (urinary)” value [7, 17] was 6.4 ± 0.43 µmol and the “Change in NO2/NO3 (urinary)” value [7, 18] was 6.6 ± 0.40 µmol. For the same compound, the “Change in NO2/NO3 (urinary)” value [7, 19] was 6.0 ± 0.40 µmol, the “Serum HDL cholesterol” value [8] was 42.6 ± 2.25 mg/dL and the “Serum LDL cholesterol” value [8] was 36.3 ± 3.45 mg/dL. The “Serum Total cholesterol” value [8] was 81.8 ± 2.57 mg/dL and the “Cholesterol ester (%)” value [8] was 70.1 ± 3.01%.

In the case of `C[C@]12CC[C@@H]3c4ccc(O)cc4CC[C@H]3[C@@H]1CC[C@@H]2O` [estradiol, 17 β-estradiol], the “Change in FFA (blood free fatty acid)” value [1] is reported as 362.8 ± 24.41 mg/dL, the “Change in Thymus Weight” value [2] is reported as 0.112 ± 0.01 g/100 g; body weight and the “Change in Body Weight” value [3, 10] is reported as 192.5 ± 7.12 g. For the same compound, the “Change in TG (blood neutral fat)” value [4] was 105.1 ± 5.37 mg/dL, the “Change in Leptin” value [5] was 0.7 ± 0.28 ng/mL and the “stimulatory (agonistic) action with respect to biological activity, in words” value [9] was “high”. For the same compound, the “Body Fat: Mesenteric fat” value [6] was 2.5 ± 0.19 g/100 g; body weight, the “Body Fat: Periovarian fat” value [6] was 2.8 ± 0.27 g/100 g; body weight and the “Body Fat: Perirenal fat” value [6] was 3.2 ± 0.22 g/100 g; body weight. For the same compound, the “Body Fat: posterior abdominal wall fat” value [6] was 1.9 ± 0.10 g/100 g; body weight, the “Change in NO2/NO3 (urinary)” value [7, 15] was 6.1 ± 0.29 µmol and the “Change in NO2/NO3 (urinary)” value [7, 16] was 7.0 ± 0.60 µmol. The “Change in NO2/NO3 (urinary)” value [7, 17] was 7.8 ± 0.59 µmol, the “Change in NO2/NO3 (urinary)” value [7, 18] was 9.0 ± 0.76 µmol and the “Change in NO2/NO3 (urinary)” value [7, 19] was 9.4 ± 0.39 µmol. The “Serum HDL cholesterol” value [8] was 35.9 ± 3.38 mg/dL, the “Serum LDL cholesterol” value [8] was 38.2 ± 1.74 mg/dL and the “Serum Total cholesterol” value [8] was 72.1 ± 3.86 mg/dL. The “Cholesterol ester (%)” value [8] was 70.7 ± 2.80%.
